Results taken from paper PMC7558026, “Exploring and applying the substrate promiscuity of a C-glycosyltransferase in the chemo-enzymatic synthesis of bioactive C-glycosides” (Nature Communications, 2020).
pIC50: −log10 of the molar value. “And” between values parts separate entries of the source, which are not always exact repeats. Equal entries are not always repeated.

Tests used:
AbCGT = AbCGT (Aloe vera, UniProt A0A7G9P699); assay: Glycosyltransferase activity assay, purified AbCGT (wild type) with aglycon acceptors and UDP-Glc; format: biochemical, Aloe barbadensis; conditions: fig. 2b, purified AbCGT, redesigned substrates; Reaction-1 to -3
in vitro = conditions: human
E. coli-AbCGT = assay: Glycosylation by whole-cell biocatalyst E. coli-AbCGT; format: cell-based; conditions: fig. 2c, 30 °C, M9 medium, 12 h, 0.25 mM acceptor; Reaction-1 to -3
Method: The induced cells of E. coli-AbCGT were harvested by centrifugation at 3000 × g for 5 min at 4 °C and washed with ddH2O. Pellets were resuspended by M9 minimal medium containing 2% glucose to appropriate cell density (OD600 = 3.0). Prepared whole-cell biocatalyst of E. coli-AbCGT (500 μL) was then added to 2-mL tubes containing various acceptors at a concentration of 0.25 mM. The mixture was incubated at 30 °C for 12 h with shaking (200 rpm). The reactions were analyzed using GT activity assays as described above. For quantification, three parallel assays were routinely carried out.

SGLT2 = biological target: T1, SGLT2 (Homo sapiens, UniProt P31639); assay: 1-NBDG uptake in HEK293 cells stably expressing SGLT2; format: cell-based; conditions: HEK293, compound at 10 μM; triplicate; read-out: SGLT2 inhibitory rates
T1 construct: Human full-length SGLT2 cDNA (NM_003041.3) was synthesized; expressed in transfected cells; host or cells: HEK293, retroviral transduction with pMSCVpuro-SGLT2, puromycin selected
T1 sequence (P31639 1-672): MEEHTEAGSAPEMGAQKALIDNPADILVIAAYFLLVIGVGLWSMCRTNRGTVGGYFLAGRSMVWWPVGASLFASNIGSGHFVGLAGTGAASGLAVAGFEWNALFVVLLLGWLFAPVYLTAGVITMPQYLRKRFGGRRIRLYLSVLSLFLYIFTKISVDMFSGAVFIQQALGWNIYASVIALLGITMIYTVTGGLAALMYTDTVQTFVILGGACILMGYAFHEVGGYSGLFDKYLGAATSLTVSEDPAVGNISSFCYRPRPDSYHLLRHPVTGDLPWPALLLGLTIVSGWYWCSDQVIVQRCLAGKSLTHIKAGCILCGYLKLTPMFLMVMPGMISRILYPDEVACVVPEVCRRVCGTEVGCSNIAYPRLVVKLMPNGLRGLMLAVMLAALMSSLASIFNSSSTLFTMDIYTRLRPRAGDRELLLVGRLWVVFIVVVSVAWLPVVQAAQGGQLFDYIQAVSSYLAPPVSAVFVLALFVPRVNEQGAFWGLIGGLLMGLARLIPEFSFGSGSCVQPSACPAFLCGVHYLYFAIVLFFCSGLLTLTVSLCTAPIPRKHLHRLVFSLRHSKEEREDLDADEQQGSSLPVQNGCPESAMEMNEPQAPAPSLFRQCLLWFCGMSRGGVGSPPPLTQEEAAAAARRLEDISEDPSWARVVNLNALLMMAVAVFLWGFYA

[1] = system: Influenza A/WSN/33 (H1N1); assay: microbe, parasite or virus in culture; format: cell-based; conditions: — = no inhibition activity

Sequence of AbCGT (A0A7G9P699 entry or part of it): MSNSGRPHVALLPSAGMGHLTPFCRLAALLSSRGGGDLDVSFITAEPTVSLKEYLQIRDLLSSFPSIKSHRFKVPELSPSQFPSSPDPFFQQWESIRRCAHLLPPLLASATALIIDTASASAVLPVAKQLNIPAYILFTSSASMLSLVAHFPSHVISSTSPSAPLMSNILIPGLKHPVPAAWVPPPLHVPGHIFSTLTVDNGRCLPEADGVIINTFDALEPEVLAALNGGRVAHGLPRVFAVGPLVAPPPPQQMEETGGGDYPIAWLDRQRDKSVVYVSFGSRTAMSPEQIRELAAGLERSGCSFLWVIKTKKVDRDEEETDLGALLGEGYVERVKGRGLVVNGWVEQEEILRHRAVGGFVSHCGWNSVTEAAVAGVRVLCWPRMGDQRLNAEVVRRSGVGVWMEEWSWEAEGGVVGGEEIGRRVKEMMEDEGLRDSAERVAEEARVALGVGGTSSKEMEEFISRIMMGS

With Oc1cc(O)c(Cc2ccc3nccnc3c2)c(O)c1 [Compound 44] the “conversion rates, Purified Enzyme” value (AbCGT) was 100%, the CC50 (in vitro) was greater than 200 µM and the “conversion rates, Whole cells” value (E. coli-AbCGT) was 7.1% and 12.8% and 10.1%. The inhibition at 10 µM (SGLT2) was 0.2%, the inhibition at 20 µM ([1]; final concentration 20 μM, read-out: Inhibitory Rates, anti-influenza A virus activity) was less than 0% and the pIC50 ([1]; read-out: IC50, anti-influenza A virus activity) was less than 4.70.
